Biological target: Tyrosine-protein kinase transforming protein Src (Rous sarcoma virus)
Test: Inhibition of [125I]phosphopeptide binding to Src SH2 domain.

Row | Structure (SMILES) | IC50 [µM]
1 | CN(CCCC1CCCCC1)C(=O)[C@H](CCC(=O)O)NC(=O)NCc1ccc(OP(=O)(O)O)cc1 | 12
2 | CC[C@H](C)[C@H](NC(=O)[C@H](CCC(=O)O)NC(=O)[C@H](CCC(=O)O)NC(=O)[C@@H](CC(=O)O)Cc1ccc(OP(=O)(O)O)cc1)C(=O)N[C@@H](CCC(=O)O)C(=O)O | 0.4

— ChEMBL document CHEMBL1130428, “Design, synthesis, and cocrystal structure of a nonpeptide Src SH2 domain ligand” (J Med Chem, 1997)
